Results: patent US20210361768A1, “METHODS AND MATERIALS FOR ASSESSING AND TREATING CANCERS” (Mayo Foundation for Medical Education and Research, priority 2018, published 2021)

System: HER2-positive breast cancer
Experiment: NeoALTTO trial: pathologic complete response and event-free survival by treatment arm and adaptive immune signature (AIS) status
Type: in vivo, human
Conditions: NeoALTTO patients
[1] = AIS deficient, listed as lapatinib

`CS(=O)(=O)CCNCc1ccc(-c2ccc3ncnc(Nc4ccc(OCc5cccc(F)c5)c(Cl)c4)c3c2)o1` [Lapatinib, lapatinib] was tested. Which “%6-yr EFS (6-year Event Free Survival rate)” value (AIS deficient) did it give?
Its value is 68%.

And the “% pCR (complete pathological response rate)” value (AIS deficient)?
The value was 17%.

And the “%6-yr EFS (6-year Event Free Survival rate)” value [1]?
The value was 68%.

What about the “% pCR (complete pathological response rate)” value [1] of the same molecule?
The value was 17%.

What about the “%6-yr EFS (6-year Event Free Survival rate)” value (AIS enrich) of the same molecule?
The value was 65%.

And the “% pCR (complete pathological response rate)” value (AIS enrich)?
Its value is 21%.
